Experimental data from US20240122178A1, “CAFFEIC ACID-BASED COMPOSITE MATERIAL AND PREPARATION METHOD THEREOF” (ZHEJIANG UNIVERSITY, priority 2021, published 2024).

Assay: caffeic acid loading rate of carrier incubated with caffeic acid solution in ethanol
Type: physicochemical
Conditions: optimal loading conditions: molar ratio γ-cyclodextrin to caffeic acid 1:64, loading time 900 minutes, 40° C.
Description: In one embodiment, under the conditions of reaction temperature of 40° C. and reaction time of 900 minutes, the effects of different ratios of the cyclodextrin metal-organic framework material to caffeic acid (a molar ratio of γ-cyclodextrin in the cyclodextrin metal-organic framework material to caffeic acid is 1:4, 1:8, 1:32, 1:64 and 1:128, respectively) on the caffeic acid loading rate are compared. From the results, it can be seen that when the molar ratio of γ-cyclodextrin to caffeic acid in the cyclodextrin metal-organic framework composite is 1:4, the caffeic acid loading rate […]; with the increase of caffeic acid dosage, the caffeic acid loading rate gradually increases, and the increase of the loading rate is no longer obvious after increasing to 1:64. Therefore, the molar ratio of γ-cyclodextrin in the cyclodextrin metal-organic framework material to caffeic acid is selected from 1:4 to 1:128, further from 1:32 to 1:128, further from […], still further from 1: 60-70, and most preferably is 1:64.
In one embodiment, the effects of different incubating time (10, 20, 60, 180, 360, 720, 900, 2160 minutes) on the caffeic acid loading rate are compared under the conditions: the molar ratio of γ-cyclodextrin in the cyclodextrin metal-organic framework material to caffeic acid being 1:64 and the reaction temperature being 40° C. […]

## OC[C@H]1O[C@@H]2O[C@H]3[C@H](O)[C@@H](O)[C@@H](O[C@H]4[C@H](O)[C@@H](O)[C@@H](O[C@H]5[C@H](O)[C@@H](O)[C@@H](O[C@H]6[C@H](O)[C@@H](O)[C@@H](O[C@H]7[C@H](O)[C@@H](O)[C@@H](O[C@H]8[C@H](O)[C@@H](O)[C@@H](O[C@H]9[C@H](O)[C@@H](O)[C@@H](O[C@H]1[C@H](O)[C@H]2O)O[C@@H]9CO)O[C@@H]8CO)O[C@@H]7CO)O[C@@H]6CO)O[C@@H]5CO)O[C@@H]4CO)O[C@@H]3CO [γ-cyclodextrin]
  caffeic acid loading rate: 7.28%
